Measured values published in US11345895B2, “Induction of arterial-type of hemogenic endothelium (AHE) and enhancement of T cell production from PSCs through overexpression of ETS factors or modulating MAPK/ERK signalling pathways” (Wisconsin Alumni Research Foundation, priority 2016, dated 2022).

How the values were obtained:
Assay type in all cases: cell-based, human
[1] = test system: CD235a/CD41a-CD45+ hematopoietic progenitors from hESCs; test: Hematopoietic progenitor production and hematopoietic CFC assay after modulation of MAPK/ERK signaling; settings: ERK pathway activated (LY294002 2 μM) or inhibited (U0126 1 μM), days 3-6
Protocol: (§2) To determine whether modulating MAPK/ERK signaling affects arterial specification of HE from hPSCs, we treated differentiation cultures on days 3 through day 6 with PI3K inhibitor LY294002, or MEK1 and MEK2 inhibitor U0126 (FIG. 6A).
(§3) MAPK/ERK pathway was activated using LY294002 (2 μM, Cayman Chemicals) and was inhibited using U0126 (1 μM, Cayman Chemicals)

[2] = test system: T lymphoid potential of hESC cultures; test: T cell differentiation on OP9-DLL4 after LY294002 or U0126 treatment; settings: cultures treated with LY294002 2 μM or U0126 1 μM
Protocol: as §2
T cell differentiation of hESC-derived hematopoietic precursors was performed on the OP9−DLL4 in T cell differentiated medium consisting of α-MEM (Gibco) supplemented with 20% FBS (Hyclone), 5 ng/ml FLT3L, 5 ng/ml IL-7 and 10 ng/ml SCF (all from PeproTech) as described previously^26. […] Cultures were fed with complete media changes weekly.
as §3

[3] = test system: DLL4+ arterial type HE from hPSCs; test: Arterial HE specification in hESC differentiation cultures with modulation of MAPK/ERK signaling (flow cytometry); settings: differentiation cultures treated on days 3 through day 6; LY294002 2 μM, U0126 1 μM
Protocol: as §2
H1 hESC line, the iETS1 H1 hESC line and the tdTomato H1 hESCs line were maintained on Matrigel™ in mTeSR1™ medium. Cells were passaged every 3-4 days using 0.5 mM EDTA in PBS. The hESC lines were differentiated on ColIV coated plate as previously described in details^26.
as §3

[4] = test system: NOTCH signaling in iETS1 hESC cultures; test: Hematopoiesis following ETS1 upregulation in the presence of NOTCH signaling blockade; settings: DOX-treated iETS1 hESC cultures; DAPT 10 μM, DLL4 blocking antibody 10 μg/ml
Text: To confirm the role of NOTCH activation in promoting definitive hematopoiesis by ETS1, we evaluated hematopoiesis following ETS1 upregulation in the presence of NOTCH signaling inhibitor DAPT, and DLL4 neutralizing antibodies (FIG. 4E).
(§1) HB-CFCs were detected as described previously^54. HB-CFCs were detected using the semisolid colony-forming serum-free medium (CF-SFM) containing 40% ES-Cult M3120 methylcellulose (2.5% solution in IMDM, Stem Cell Technologies), 25% StemSpan™ serum-free expansion medium (SFEM, Stem Cell Technologies), 25% human endothelial serum-free medium (ESFM, Invitrogen), 10% BIT 9500 supplement (Stem Cell Technologies), GlutaMAX™ (1/100 dilution, Invitrogen), Ex-Cyte™ (1/1000 dilution, Millipore), 100 μM MTG, 50 μg/ml ascorbic acid and 20 ng/ml FGF (Peprotech). Hematopoietic CFCs were detected using serum containing H4435 MethoCult with FGF, SCF, IL-3, IL-6 and EPO (Stem Cell Technologies).
Cells were analyzed using MACSQuant Analyzer (Miltenyi Biotec) and FlowJo software (Tree star).
Notch signaling was blocked by DAPT (γ-secretase inhibitor/GSI, 10 μM, Cayman Chemicals) or DLL4 blocking antibody (10 μg/ml, Creative BioLabs)

[5] = test system: iETS1-hESCs (H1, DOX-inducible ETS1 transgene); test: Primitive and definitive hematopoiesis from DOX-treated iETS1-hESCs (HB-CFC, HE, T cell, RBC cultures); settings: CD43+ cells subcultured on OP9-DLL4
Protocol: To define which type of hematopoiesis is affected by ETS1 overexpression, we evaluated the effect of DOX treatment on i) hemangioblast (HB) CFCs that reflect the primitive wave of hematopoiesis^37, 38 and ii) on T lymphocytes and β-hemoglobin-producing red blood cells that reflect definitive hematopoiesis (FIG. 3A)^37, 39. […] This effect was more profound when cultures were treated with DOX from day 0 through day 3 to ensure maximum ETS1 overexpression on day 3 (FIG. 3B and FIGS. 9B-9C). […] To determine the effect of ETS1 upregulation on T cell potential, we collected CD43^+ cells from DOX+ and DOX− cultures and subcultured on OP9−DLL4 stromal cells. […]
as §1, with “Technologies). […]” for “Technologies).”

In the case of `N#CC(=C(/N)Sc1ccccc1N)/C(C#N)=C(\N)Sc1ccccc1N` [U0126], the “production of multipotent CD235a/CD41a-CD45+ hematopoietic progenitors and CFC potential” value [1] is reported as “abrogated production”, the T lymphoid potential [2] is reported as “entirely abrogated” and the “production of DLL4+ arterial type HE, including the DLL4+CXCR4+ fraction” value [3] is reported as “almost completely abrogated formation”.

In the case of `C[C@H](NC(=O)Cc1cc(F)cc(F)c1)C(=O)N[C@H](C(=O)OC(C)(C)C)c1ccccc1` [DAPT], the “effect of ETS1 upregulation on hematopoiesis (blood production and CFC potential)” value [4] is reported as “abrogated effect”.

`C[C@H]1c2cccc(O)c2C(=O)C2=C(O)[C@]3(O)C(=O)C(C(N)=O)=C(O)[C@@H](N(C)C)[C@@H]3[C@@H](O)[C@@H]21` [DOX, doxycycline] was tested, and the “number of T lymphoid cells per 10^4 of CD43 cells, DOX+ versus DOX- cultures” value [5] was ~8 fold.
